Results as given in paper PMC10485906, “Development of a Dihydroquinoline–Pyrazoline GluN2C/2D-Selective Negative Allosteric Modulator of the N-Methyl-D-aspartate Receptor” (ACS Chemical Neuroscience, 2023).

Legend:
Format in all cases: in vitro ADME
[1] = Plasma stability, mouse; conditions: for half-life at 3 μM / remaining at 120 min, 3 µM: male, BALB/C, mouse; for half-life at 3 μM: mouse plasma, incubation up to 120 min, read-out: plasma stability T1/2, mouse; for remaining at 120 min, 3 µM: plasma, over the assay time course
Experimental: (§1) Human plasma (lithium heparin (LiHep) mixed, gender pooled, 0.2 μm filtered) and mouse plasma (BALB/C, LiHep mixed, male pooled, 0.2 μm filtered) were purchased from BioIVT. Procaine (Sigma-Aldrich) served as a positive control for both human and mouse plasma experiments. Test compounds and positive controls were initially dissolved in DMSO to make 10 mM stock solutions. The solutions of test and control compounds were then further diluted in 70% MeOH/H2O or 100% MeCN to 500 μM. Next, the human or mouse plasma (994 μL) was aliquoted into 1.5 mL Eppendorf tubes with duplicates (reactions A and B) being prepared for each compound. The plasma was then incubated at 37 °C for 10 min. Afterward, the reaction was initiated by the addition of the test compound (6 μL of 500 μM solution) and further incubated at 37 °C for the designated time course of the study. This procedure provided duplicate experiments with a final volume of 1000 μL (<0.6% organic solvent content) and a final test compound concentration of 3 μM. Aliquots (100 μL) were removed from each reaction mixture at 0, 15, 30, 60, and 120 min time intervals and quenched with 150 μL of cold ISTD solution (2 μM 7-ethoxy-d5-coumarin in MeOH or MeCN). Quenched aliquots were then centrifuged at 15,000 g for 30–45 min, and the resulting supernatants (∼70 μL) were withdrawn and placed in LC-MS vials to be analyzed by LC-MS/MS (Agilent G6460C QQQ MS coupled with an Infinity II 1260 HPLC). Each test compound was run in tandem with positive and negative control experiments for quality assurance. The positive control reaction was conducted at a final volume of 1000 μL for a single run at each time point. Finally, the negative control experiment was conducted with test compounds in DPBS (143 μL) and analyzed at the 120 min time point.
(§2) For both LM and plasma assays, each data point was analyzed in triplicate using between blank washes to avoid carry over and to equilibrate the column for the subsequent runs. Averages of these triplicates for individual compounds at each time point were then normalized to the data at 0 min, representing 100% of the test compound remaining or 0% metabolism. Half-lives (t1/2) were calculated by plotting ln of % test compound remaining versus time and performing linear regression to determine slope. Slope = −k and t1/2 = 0.693/k for first-order kinetics (see Figures S5 and S6 for a representative example).

[2] = Liver microsome stability, mouse; conditions: CD-1, mouse; for half-life at 3 μM / remaining at 0.5 h, 3 µM: liver microsomes; for half-life at 3 μM: incubation up to 30 min, read-out: liver microsome stability T1/2, mouse; for remaining at 0.5 h, 3 µM: over the assay time course (30 min), read-out: % remaining, mouse LMs; for microsomal CLint at 3 μM: mouse liver microsomes
Experimental: Human liver microsomes (HLMs, 20 mg/mL) and CD-1 mouse liver microsomes (MLMs, 20 mg/mL) were purchased from Xenotech. NADPH was purchased from Sigma-Aldrich and prepared in 10 mM stock solutions of distilled H2O (Invitrogen UltraPure). Verapamil and diphenhydramine were both purchased from Sigma-Aldrich and served as positive controls for HLM and MLM stability, respectively. Test compounds and positive controls were initially dissolved in DMSO to make 10 mM stock solutions. Sample solutions were then further diluted in 70% MeOH/H2O or 100% MeCN to 500 μM. Next, the reactions were prepared by mixing human or mouse liver microsomes (55 μL) with potassium phosphate buffer (100 mM, […]) in 1.5 mL Eppendorf tubes. The test compounds (6.6 μL of 500 μM solution) were subsequently added to the suspensions, and the reaction mixtures were incubated at 37 °C for 5 min. Afterward, the liver microsome reactions were initiated with 110 μL of 10 mM NADPH and further incubated at 37 °C for the designated time course of the study. This procedure provided experiments with a final volume of 1100 μL (<0.6% organic solvent content), a concentration for HLMs and MLMs of 1 mg/mL, and a final test compound concentration of 3 μM. Aliquots (100 μL) were removed from each reaction mixture in duplicate at 0, 5, 10, 15, and 30 min time intervals and quenched with 100 μL of cold internal standard solution (ISTD, 2 μM 7-ethoxy-d5-coumarin in MeOH or MeCN). Quenched aliquots were then centrifuged at 12 500 g for 5–10 min, and the resulting supernatants were withdrawn and placed in LC-MS vials to be analyzed by LC-MS/MS (Agilent G6460C QQQ MS coupled with an Infinity II 1260 HPLC). Each test compound was run in tandem with positive and negative control experiments for quality assurance. Positive control reactions were conducted at a final volume of 550 μL for a single run at each time point. Lastly, the negative control experiment was conducted with test compounds and liver microsomes in the absence of NADPH (150 μL) and analyzed at the 30 min time point.
as §2

[3] = Plasma stability, human; conditions: both sexes; for half-life at 3 μM: human plasma, incubation up to 120 min, read-out: plasma stability T1/2, human; for remaining at 120 min, 3 µM: plasma, over the assay time course
Experimental: as §1, §2

| half-life at 3 μM [1] [min] | remaining at 120 min, 3 µM [1] [%] | half-life at 3 μM [2] [min] | remaining at 0.5 h, 3 µM [2] [%] | microsomal CLint at 3 μM [2] [µL/min/mg] | half-life at 3 μM [3] [min] | remaining at 120 min, 3 µM [3] [%] | metabolized in mouse plasma (% of prodrug) ([1]; after 2 h) [%] | SMILES |
| --- | --- | --- | --- | --- | --- | --- | --- | --- |
| > 120 | > 95 | > 30 | > 95 | < 23 | > 120 | > 95 |  | O=C(O)CCC(=O)N1N=C(c2c(-c3ccc(Cl)cc3)c3ccccc3[nH]c2=O)CC1c1ccc(Cl)cc1 (centres unmarked) [2a] |
| > 120 | > 95 | > 30 | > 95 | < 23 | > 120 | > 95 |  | O=C(O)CC(F)(F)C(=O)N1N=C(c2c(-c3ccc(Cl)cc3)c3ccccc3[nH]c2=O)CC1c1ccc(Cl)cc1 (centres unmarked) [2i] |
| > 120 |  | > 30 | > 90 | < 23 | > 120 |  | 42 | NC(=O)CC(F)(F)C(=O)N1N=C(c2c(-c3ccc(Cl)cc3)c3ccccc3[nH]c2=O)CC1c1ccc(Cl)cc1 (centres unmarked) [2k] |
| 4.2 |  | 2.6 |  | 267 | > 120 |  |  | CCOC(=O)CC(F)(F)C(=O)N1N=C(c2c(-c3ccc(Cl)cc3)c3ccccc3[nH]c2=O)CC1c1ccc(Cl)cc1 (centres unmarked) [2l] |
| 37 |  | 2.9 |  | 239 | > 120 |  |  | CC(C)OC(=O)CC(F)(F)C(=O)N1N=C(c2c(-c3ccc(Cl)cc3)c3ccccc3[nH]c2=O)CC1c1ccc(Cl)cc1 (centres unmarked) [2m] |
| 1.3 |  | 1.8 |  | 385 | > 120 |  |  | O=C(CC(F)(F)C(=O)N1N=C(c2c(-c3ccc(Cl)cc3)c3ccccc3[nH]c2=O)CC1c1ccc(Cl)cc1)OCC1CC1 (centres unmarked) [2n] |
| 4 |  | 4 |  | 173 | > 120 |  |  | CC(C)(C)COC(=O)CC(F)(F)C(=O)N1N=C(c2c(-c3ccc(Cl)cc3)c3ccccc3[nH]c2=O)CC1c1ccc(Cl)cc1 (centres unmarked) [2o] |
| 1.4 |  | 7.2 |  | 96 | > 120 |  |  | O=C(CC(F)(F)C(=O)N1N=C(c2c(-c3ccc(Cl)cc3)c3ccccc3[nH]c2=O)CC1c1ccc(Cl)cc1)OCc1ccccc1 (centres unmarked) [2p] |
| > 120 |  | ≤ 7 |  | 178 | > 120 |  |  | CNC(=O)CC(F)(F)C(=O)N1N=C(c2c(-c3ccc(Cl)cc3)c3ccccc3[nH]c2=O)CC1c1ccc(Cl)cc1 (centres unmarked) [2q] |
| > 120 |  |  |  | 231 | > 120 |  |  | CN(C)C(=O)CC(F)(F)C(=O)N1N=C(c2c(-c3ccc(Cl)cc3)c3ccccc3[nH]c2=O)CC1c1ccc(Cl)cc1 (centres unmarked) [2r] |
